Columns and labels:
Camphor convulsions test = details: for ED50: Mus musculus, read-out: ED50 (camphor)
Description: (§2) The anticonvulsant action of the proposed preparation was tested on mice weighing 19 to 25 g and rats weighing 120 to 150 g by conducting maximum electroshock, corazol, strychnine, camphor, nicotine and arecoline tests.

[1] = Duration of urethane-induced sleep; type: in vivo; details: milontin 100 mg/kg; for Average Duration of Urethane-Induced Sleep: P = 0.05, urethane 1,000 mg/kg, proposed preparation 100 mg/kg, zarontin 150 mg/kg
Source text: (§1) Nembutal was used as a trunk narcotic, and urethane as a cortical narcotic.

[2] = Duration of Nembutal-induced sleep; type: in vivo; details: for Average Duration of Nembutal-Induced Sleep: P = 0.05, Nembutal 40 mg/kg, proposed preparation 100 mg/kg, zarontin 150 mg/kg, milontin 100 mg/kg
Source text: as §1

[3] = Maximum electroshock test
Description: as §2

[4] = Neurotoxicity: rightening, gait, stance, muscle tone and equilibrium tests; type: in vivo; details: P = 0.05; for TD50: in vivo, read-out: TD50 (mean neurotoxic dose)
Description: The neurotoxicity levels were determined by conducting rightening, gait, stance, muscle tone and equilibrium tests.

[5] = Acute toxicity, single intraperitoneal administration, 48 hours (Litchfield and Wilcockson); type: in vivo, white mice; details: intraperitoneal, white mice, P=0.05; for LD50: 2880 min; for LD50 at 48 h: mouse, in vivo, ip
Description: The acute toxicity of the proposed preparation was tested on white mice weighing 19 to 20 g, by single intraperitoneal administrations of 1.5- and 10-percent colloidal solutions of the anticonvulsant in a 0.5-percent solution of carboxymethyl cellulose. The animals were observed during 48 hours. In order to establish the median lethal dose (LD50), the experimental data was statistically processed using the Litchfield and Wilcockson techniques. Milontin and zarontin were analyzed in the same way.

animal or person = assay: animal or person
Description: The general effect of the proposed preparation was tested on white mice, rats and rabbits.

[6] = Clinical comparison in petit mal epilepsy; type: in vivo, human (patients)

Description for Corazol convulsion test: as §2

CN1C(=O)CC(c2ccccc2)C1=O (stereo not drawn) [Milontin, N-methyl-α-phenylsuccinimide]
ED50 (Camphor convulsions test): 99 mg/kg
protection index I=TD50/ED50, Camphor (Camphor convulsions test; camphor): 3.44
protection index PI (mean lethal dose / mean effective dose), Camphor (Camphor convulsions test; camphor): 9.6
Average Duration of Urethane-Induced Sleep [1]: 16.5 ± 4.6 min
prolongation of duration of urethane-induced sleep [1]: more than 3 times
Average Duration of Nembutal-Induced Sleep [2]: 139.2 ± 33.2 min
prolongation of the hypnotic action of Nembutal ([2]; in words): statistically significant prolongation
ED50 ([3]; Mus musculus, read-out: ED50 (Electroshock)): 64 mg/kg
protection index I=TD50/ED50, Electroshock ([3]; electroshock): 5.3
protection index PI (mean lethal dose / mean effective dose), Electroshock ([3]; electroshock): 14.85
anticonvulsant activity in maximum electroshock test ([3]; in words): anticonvulsant activity was only exhibited by the proposed preparation and milontin
TD50 (mean neurotoxic dose) [4]: 340(278 to 416) mg/kg
TD50 [4]: 340 mg/kg
ED50 (Corazol convulsion test; Mus musculus, read-out: ED50 (corazol)): 87 mg/kg
protection index I=TD50/ED50, Corazol (Corazol convulsion test; corazol): 3.91
protection index PI (mean lethal dose / mean effective dose), Corazol (Corazol convulsion test; corazol): 10.9
antistrychnine effect, ranking of the three drugs (in words): at its lowest
ED50 (strychnine) (strychnine): 230 mg/kg
protection index I=TD50/ED50, Strychnine (strychnine): 1.47
protection index PI (mean lethal dose / mean effective dose), Strychnine (strychnine): 4.14
LD50 [5]: 950 (792 to 1,140) mg/kg
LD50 at 48 h [5]: 950 mg/kg

CCCC(C)C1(CC)C(=O)NC(=O)NC1=O (stereo not shown) [Nembutal]
Average Duration of Nembutal-Induced Sleep [2]: 40.8 ± 23.04 min

CCOC(N)=O [Urethane]
Average Duration of Urethane-Induced Sleep [1]: 3.3 ± 1.4 min

CCC1(C)CC(=O)NC1=O (stereo not drawn) [Zarontin, α-methyl, ethylsuccinimide]
dose inducing sleep (animal or person; intraperitoneal): ≥ 900 mg/kg
dose causing tremors of the hind extremities (animal or person; mouse, in vivo, ip): 700 mg/kg
ED50 (Camphor convulsions test): 131 mg/kg
Average Duration of Urethane-Induced Sleep [1]: 4.7 ± 2.1 min
Average Duration of Nembutal-Induced Sleep [2]: 76.9 ± 28.9 min
TD50 (mean neurotoxic dose) [4]: 590(513 to 678) mg/kg
TD50 [4]: 590 mg/kg
ED50 (strychnine) (strychnine): 152 mg/kg
LD50 [5]: 1,325 (1,200 to 1,462) mg/kg
LD50 at 48 h [5]: 1320 mg/kg

CC1(c2ccccc2)CC(=O)N(CN2CCOCC2)C1=O (stereo not shown) [morpholep]
patients with improvement [6]: 12 out of 14

CCC1(C)CC(=O)NC1=O (stereo not shown) [pyknolepsin]
patients with improvement [6]: 12 out of 14

CCC1(C)CC(=O)NC1=O (stereo not shown) [suxilep]
patients with improvement [6]: 10 out of 12
